From ChEMBL document CHEMBL1201862, “PubChem BioAssay data set” (2004)
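Assay format: 96-well plates, 48-hour exposure. GI50 marks 50% less growth.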 Calls of active or inactive are those of the source. No stated cut-off is given here; in the data, active = GI50 up to about 1.1 µM and inactive = higher.

Tests used:
Assay in all cases: DTP human tumour cell line panel, 48 h
SN12C = tested on: SN12C
XF498 = tested on: XF498
SNB-75 = tested on: SNB-75
SK-MEL-28 = tested on: SK-MEL-28
OVCAR-5 = tested on: OVCAR-5
UACC-62 = tested on: UACC-62
SW-620 = tested on: SW-620
Malme-3M = tested on: Malme-3M
SF-268 = tested on: SF-268
HT-29 = tested on: HT-29
SNB-19 = tested on: SNB-19
MOLT-4 = tested on: MOLT-4
KM12 = tested on: KM12
COLO 205 = tested on: COLO 205
CCRF-CEM = tested on: CCRF-CEM
EKVX = tested on: EKVX
HOP-18 = tested on: HOP-18
A549 = tested on: A549
RXF 393 = tested on: RXF 393
DLD-1 = tested on: DLD-1
SK-MEL-2 = tested on: SK-MEL-2
OVCAR-3 = tested on: OVCAR-3
IGROV-1 = tested on: IGROV-1
KM-20L2 = tested on: KM-20L2
M14 = tested on: M14
LOX IMVI = tested on: LOX IMVI
NCI-H226 = tested on: NCI-H226
HOP-62 = tested on: HOP-62
NCI-H23 = tested on: NCI-H23
SF-539 = tested on: SF-539
HCC 2998 = tested on: HCC 2998
NCI-H460 = tested on: NCI-H460
SF-295 = tested on: SF-295
UO-31 = tested on: UO-31
M19-MEL = tested on: M19-MEL
OVCAR-8 = tested on: OVCAR-8
LXFL 529 = tested on: LXFL 529
SNB-78 = tested on: SNB-78
UACC-257 = tested on: UACC-257
RPMI-8226 = tested on: RPMI-8226
HCT-15 = tested on: HCT-15
HL-60 = tested on: HL-60
CAKI-1 = tested on: CAKI-1
SK-MEL-5 = tested on: SK-MEL-5
OVCAR-4 = tested on: OVCAR-4
RXF 631 = tested on: RXF 631
ACHN = tested on: ACHN
K562 = tested on: K562
786-0 = tested on: 786-0
NCI-H522 = tested on: NCI-H522
HCT-116 = tested on: HCT-116
U-251 = tested on: U-251
TK-10 = tested on: TK-10
A498 = tested on: A498
SK-OV-3 = tested on: SK-OV-3
DMS-273 = tested on: DMS-273
HOP-92 = tested on: HOP-92
DMS-114 = tested on: DMS-114

O=[N+]([O-])c1ccc(Sc2c3ccccc3nc3ccccc23)cc1
GI50 (SN12C): > 100 µM (inactive) | GI50 (XF498): > 100 µM (inactive) | GI50 (SNB-75): > 100 µM (inactive) | GI50 (SK-MEL-28): > 100 µM (inactive) | GI50 (OVCAR-5): > 100 µM (inactive) | GI50 (UACC-62): > 100 µM (inactive) | GI50 (SW-620): > 100 µM (inactive) | GI50 (Malme-3M): > 100 µM (inactive) | GI50 (SF-268): > 100 µM (inactive) | GI50 (HT-29): > 100 µM (inactive) | GI50 (SNB-19): > 100 µM (inactive) | GI50 (MOLT-4): > 100 µM (inactive) | GI50 (KM12): > 100 µM (inactive) | GI50 (COLO 205): > 100 µM (inactive) | GI50 (CCRF-CEM): > 100 µM (inactive) | GI50 (EKVX): > 100 µM (inactive) | GI50 (HOP-18): > 100 µM (inactive) | GI50 (A549): > 100 µM (inactive) | GI50 (RXF 393): > 100 µM (inactive) | GI50 (DLD-1): > 100 µM (inactive) | GI50 (SK-MEL-2): > 100 µM (inactive) | GI50 (OVCAR-3): > 100 µM (inactive) | GI50 (IGROV-1): > 100 µM (inactive) | GI50 (KM-20L2): > 100 µM (inactive) | GI50 (M14): > 100 µM (inactive) | GI50 (LOX IMVI): > 100 µM (inactive) | GI50 (NCI-H226): > 100 µM (inactive) | GI50 (HOP-62): > 100 µM (inactive) | GI50 (NCI-H23): > 100 µM (inactive) | GI50 (SF-539): > 100 µM (inactive) | GI50 (HCC 2998): > 100 µM (inactive) | GI50 (NCI-H460): > 100 µM (inactive) | GI50 (SF-295): > 100 µM (inactive) | GI50 (UO-31): > 100 µM (inactive) | GI50 (M19-MEL): > 100 µM (inactive) | GI50 (OVCAR-8): > 100 µM (inactive) | GI50 (LXFL 529): > 100 µM (inactive) | GI50 (SNB-78): > 100 µM (inactive) | GI50 (UACC-257): > 100 µM (inactive) | GI50 (RPMI-8226): > 100 µM (inactive) | GI50 (HCT-15): > 100 µM | GI50 (HL-60): 46.5 µM (inactive) | GI50 (CAKI-1): > 100 µM (inactive) | GI50 (SK-MEL-5): > 100 µM (inactive) | GI50 (OVCAR-4): > 100 µM (inactive) | GI50 (RXF 631): > 100 µM (inactive) | GI50 (ACHN): > 100 µM (inactive) | GI50 (K562): > 100 µM (inactive) | GI50 (786-0): > 100 µM (inactive) | GI50 (NCI-H522): 74.1 µM (inactive) | GI50 (HCT-116): > 100 µM (inactive) | GI50 (U-251): > 100 µM (inactive)

O=S(O)CCCCCSSc1ccc(Cl)cc1
GI50 (SN12C): 16 µM (inactive) | GI50 (XF498): 13.7 µM (inactive) | GI50 (SNB-75): 23.1 µM (inactive) | GI50 (SK-MEL-28): 21.6 µM (inactive) | GI50 (OVCAR-5): 21.1 µM (inactive) | GI50 (Malme-3M): 23 µM (inactive) | GI50 (SF-268): 10.7 µM (inactive) | GI50 (HT-29): 26.6 µM (inactive) | GI50 (SNB-19): 28 µM (inactive) | GI50 (KM12): 20.7 µM (inactive) | GI50 (CCRF-CEM): 4.49 µM (inactive) | GI50 (EKVX): 39.1 µM (inactive) | GI50 (TK-10): 23.2 µM (inactive) | GI50 (A498): 17 µM (inactive) | GI50 (RXF 393): 13.8 µM (inactive) | GI50 (DLD-1): 21.5 µM (inactive) | GI50 (SK-MEL-2): 15.2 µM (inactive) | GI50 (OVCAR-3): 15.6 µM (inactive) | GI50 (M14): 22.7 µM (inactive) | GI50 (LOX IMVI): 16.4 µM (inactive) | GI50 (SK-OV-3): 56 µM (inactive) | GI50 (HOP-62): 22.4 µM (inactive) | GI50 (NCI-H23): 19.8 µM (inactive) | GI50 (SF-539): 16 µM (inactive) | GI50 (HCC 2998): 25.9 µM (inactive) | GI50 (NCI-H460): 36.9 µM (inactive) | GI50 (UO-31): 12.9 µM (inactive) | GI50 (M19-MEL): 28.4 µM (inactive) | GI50 (LXFL 529): 13.7 µM (inactive) | GI50 (SNB-78): 23.5 µM (inactive) | GI50 (UACC-257): 22.5 µM (inactive) | GI50 (HL-60): 27.2 µM (inactive) | GI50 (OVCAR-4): 28.7 µM (inactive) | GI50 (RXF 631): 18.9 µM (inactive) | GI50 (K562): > 100 µM (inactive) | GI50 (NCI-H522): 14.9 µM (inactive) | GI50 (HCT-116): 25.2 µM (inactive) | GI50 (U-251): 10.1 µM (inactive)

O=P(CN1CCOCC1)(c1ccccc1)c1ccccc1
GI50 (SN12C): > 100 µM (inactive) | GI50 (XF498): > 100 µM (inactive) | GI50 (SNB-75): > 100 µM (inactive) | GI50 (SK-MEL-28): > 100 µM (inactive) | GI50 (OVCAR-5): > 100 µM (inactive) | GI50 (UACC-62): > 100 µM (inactive) | GI50 (SW-620): > 100 µM (inactive) | GI50 (Malme-3M): > 100 µM (inactive) | GI50 (SF-268): > 100 µM (inactive) | GI50 (HT-29): > 100 µM (inactive) | GI50 (SNB-19): > 100 µM (inactive) | GI50 (MOLT-4): > 100 µM (inactive) | GI50 (KM12): > 100 µM (inactive) | GI50 (COLO 205): > 100 µM (inactive) | GI50 (CCRF-CEM): > 100 µM (inactive) | GI50 (EKVX): > 100 µM (inactive) | GI50 (TK-10): > 100 µM (inactive) | GI50 (A549): > 100 µM (inactive) | GI50 (A498): > 100 µM (inactive) | GI50 (RXF 393): > 100 µM (inactive) | GI50 (SK-MEL-2): > 100 µM (inactive) | GI50 (OVCAR-3): > 100 µM (inactive) | GI50 (IGROV-1): > 100 µM (inactive) | GI50 (DMS-273): > 100 µM (inactive) | GI50 (M14): > 100 µM (inactive) | GI50 (HOP-92): > 100 µM (inactive) | GI50 (LOX IMVI): > 100 µM (inactive) | GI50 (SK-OV-3): > 100 µM (inactive) | GI50 (HOP-62): > 100 µM (inactive) | GI50 (NCI-H23): > 100 µM (inactive) | GI50 (SF-539): > 100 µM (inactive) | GI50 (NCI-H460): > 100 µM (inactive) | GI50 (SF-295): > 100 µM (inactive) | GI50 (UO-31): > 100 µM (inactive) | GI50 (M19-MEL): > 100 µM (inactive) | GI50 (OVCAR-8): > 100 µM (inactive) | GI50 (LXFL 529): > 100 µM (inactive) | GI50 (SNB-78): > 100 µM (inactive) | GI50 (UACC-257): > 100 µM (inactive) | GI50 (RPMI-8226): > 100 µM (inactive) | GI50 (HCT-15): > 100 µM | GI50 (HL-60): > 100 µM (inactive) | GI50 (DMS-114): > 100 µM (inactive) | GI50 (CAKI-1): > 100 µM (inactive) | GI50 (SK-MEL-5): > 100 µM (inactive) | GI50 (OVCAR-4): > 100 µM (inactive) | GI50 (RXF 631): > 100 µM (inactive) | GI50 (ACHN): > 100 µM (inactive) | GI50 (K562): > 100 µM (inactive) | GI50 (786-0): > 100 µM (inactive) | GI50 (NCI-H522): > 100 µM (inactive) | GI50 (HCT-116): > 100 µM (inactive) | GI50 (U-251): > 100 µM (inactive)
